Results: US9421220B2, “Anti-cancer composition comprising alginate” (THE UNIVERSITY OF BIRMINGHAM EDGBASTON, priority 2009, dated 2016)

Experiments:
[1] = system: Apc^Min/+ mouse; assay: Tumour burden in Apc^Min/+ mice; format: in vivo; settings: for effect on tumour number, size or tumour burden compared to control mice: Apc^Min/+ mice fed control diet, sub-cutaneous injection
Procedure: To delineate how iron mediates colorectal carcinogenesis in-vivo, further experiments were carried out using the ‘Apc^Min/+’ mouse. These mice carry a mutation which disrupts the ability of the APC tumour suppressor to bind and turnover b-catenin, and the mice develop 100's of benign adenomas.
Apc^Min/+ mice were fed a standard control diet (n=17) or an iron deficient diet (n=11) immediately post weaning with tumour burden being assessed at 80 days of age. In addition mice were fed a high iron diet (standard control diet supplemented with 2% reduced pentacarbonyl iron (Harlan UK)) (n=6) but in these animals tumour burden was assessed at 45 days of age. A fourth group of Apc^Min/+ mice (n=9), were fed the standard control diet but upon reaching 50 days of age were injected sub-cutaneously with iron dextran (50 mgs) with tumour burden being assessed at 85 days of age. A fifth group of Apc^Min/+ mice (n=9), were fed the standard control diet and post weaning were injected daily sub-cutaneously with the systemic iron chelator desferioxamine (200 mgs/kg).

[2] = system: normal human colonic cells; settings: normal cells exposed to increased levels of iron; cited from earlier work
[3] = system: cells containing a mutant APC protein; settings: cells deficient in the APC protein exposed to iron; cited from earlier work

CC(=O)N(O)CCCCCNC(=O)CCC(=O)N(O)CCCCCNC(=O)CCC(=O)N(O)CCCCCN [desferioxamine]
effect on tumour number, size or tumour burden compared to control mice [1]: no effect

iron dextran
effect on tumour number, size or tumour burden compared to control mice [1]: no effect
tumour burden ([1]; Apc^Min/+ mice on iron deficient diet co-administered with iron dextran): suppression

[Fe] [iron]
phenotypic effects [2]: no phenotypic effects
cellular viability and proliferation [3]: increased
